Values of other authors, collected in patent US8163312B2, “Herbal formulation for prevention and treatment of diabetes and associated complications” (Innoveda Biological Solutions (P) Ltd., priority 2008, dated 2012).

Key:
PPAR-alpha = molecular target: T1, PPAR-alpha (Homo sapiens, UniProt Q07869); conditions: selective PPAR-alpha antagonist added
T1 construct: host or cells: human embryonic kidney 293 cells
T1 sequence (Q07869 1-468): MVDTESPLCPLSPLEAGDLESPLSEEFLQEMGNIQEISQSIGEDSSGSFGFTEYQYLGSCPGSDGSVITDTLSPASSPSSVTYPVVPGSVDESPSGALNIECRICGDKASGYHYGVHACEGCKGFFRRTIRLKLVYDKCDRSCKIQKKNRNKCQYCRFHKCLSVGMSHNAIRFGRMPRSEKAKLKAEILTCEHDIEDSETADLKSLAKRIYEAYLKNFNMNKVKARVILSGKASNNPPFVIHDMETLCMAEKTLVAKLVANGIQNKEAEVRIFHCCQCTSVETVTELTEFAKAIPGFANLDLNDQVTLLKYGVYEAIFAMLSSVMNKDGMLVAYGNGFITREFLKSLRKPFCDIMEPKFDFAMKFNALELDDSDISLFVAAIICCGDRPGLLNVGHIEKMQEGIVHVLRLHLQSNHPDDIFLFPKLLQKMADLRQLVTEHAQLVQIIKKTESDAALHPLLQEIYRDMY

mice = conditions: sanjoinine-A given as one unit
[1] = test system: alloxan induced diabetic rats

CC(C)c1ccc2c(c1)c(SC(C)(C)C)c(CC(C)(C)C(=O)O)n2Cc1ccc(Cl)cc1 [MK-886]
effects of SO extract and mangiferin on PPAR-alpha luciferase and lipoprotein lipase (PPAR-alpha): completely suppressed

CN(C)CCCN1c2ccccc2Sc2ccc(Cl)cc21 [chlorpromazine]
relative sedative potency (mice): 5

COc1cc(/C=C/C(=O)CC(=O)/C=C/c2ccc(O)c(OC)c2)ccc1O [curcumin]
activity of SDH (sorbitol dehydrogenase) [1]: lowered significantly
blood sugar, Hb and glycosylated hemoglobin levels [1]: reduced
oxidative stress (levels of TBRAS) [1]: reduced the oxidative stress

COc1cc2ccnc3c2c(c1OC)-c1ccccc1C3=O [lysicamine]
relative sedative potency (mice): 6.5

CC(C)C[C@@H]1NC(=O)[C@@H](NC(=O)[C@H](Cc2ccccc2)N(C)C)[C@H](C(C)C)Oc2ccc(cc2)/C=C\NC1=O [sanjoinine-A]
relative sedative potency (mice): one

sanjoinine-Ahl
relative sedative potency (mice): 3
